Data published in ChEMBL document CHEMBL3507680, “University of Dundee, Gates Library screen for HepG2 cell viability”.

Assay: Human HepG2 cell viability assay in 384 well format
Type: toxicity, cell-based
Parameters: dose 125 nL, time 70.5 hour; cytotoxicity at 70.5 h: concentration not given beside the values
Settings: HepG2 cells, read-out: Inhibition

| SMILES | cytotoxicity at 70.5 h [%] |
| --- | --- |
| Cc1ccccc1NC(=O)N1CC[C@@H]2CN(C)S(=O)(=O)[C@@H]2CC1 | -8.26 |
| Cc1oncc1C(=O)N1CC2CC1(C(=O)NCc1ccco1)C2 | -10.9 |
| COc1cc(N2CCC3(CC2)CC(N2CCOCC2)CO3)ncn1 (stereo unspecified) | -2.9 |
| Cc1ccc(C(=O)N2C[C@H]3CNC[C@H]3C2)cn1 | 25.5 |
| NC1CCc2c(ccc(=O)n2CC2CC2)C1 (stereo unspecified) | 27.6 |
| O=C(CC1CC1)N1C[C@H]2CN(CC3CC3)C(=O)[C@H]2C1 | -1.89 |
| CC(C)CN1CCNC(=O)C12CCN(S(=O)(=O)c1ccc(F)cc1)CC2 | -3.61 |
| CC(C)NC(=O)C1CCC2(CCNCC2)C1 (stereo unspecified) | -1.82 |
| O=S(=O)(C1CC1)N1CCO[C@H]2[C@H](OCC3CC3)CC[C@@H]21 | 16.9 |
| N#Cc1cccc(C(=O)N2CCn3c(Cn4cncn4)cnc3C2)c1 | -5.58 |
| O=C(c1ccccc1)N1Cc2nccn2CC(Cn2ncccc2=O)C1 (stereo unspecified) | -6.78 |
| O=c1cccnn1CC1CN(c2ncc(F)cn2)Cc2nccn2C1 (stereo unspecified) | -10.5 |
| O=C(CC1CC1)N1Cc2nccn2CC(Cn2ncccc2=O)C1 (stereo unspecified) | -6.18 |
| Cc1ccc(C(=O)N2CCc3ncc(Cn4cccn4)n3CC2)o1 | -3.58 |
| CC(=O)NCC(=O)N1CCC2(CC1)NC(=O)CC2c1cnn(C)c1 (stereo unspecified) | -8.17 |
| C1CC(CN2C[C@@H]3C[C@@H](c4nnc(C5CC5)o4)O[C@@H]3C2)CCO1 | -7.69 |
| O=C(NC1CCCC1)c1cc2c(s1)CCN2C(=O)c1ccccc1 | 0.186 |
| COCCN1CCCc2sc(C(=O)NCC3CCCO3)nc21 (stereo unspecified) | 31.2 |
| COCCN1Cc2ccccc2C2(CCN(C(=O)c3ccco3)CC2)C1 | 1.21 |
| O=C(NCC1CCCO1)c1nc2c(s1)CCCN2Cc1ccccc1 (stereo unspecified) | -4.02 |
| CNC(=O)[C@H]1C[C@@H]2CN(C(=O)c3ccoc3)C[C@@H]2N1S(C)(=O)=O | -12 |
| CNC(=O)[C@H]1C[C@@H]2CN(C(=O)c3ccc(C)o3)C[C@@H]2N1S(C)(=O)=O | -9.33 |

| SMILES | cytotoxicity at 70.5 h [%] |
| --- | --- |
| CC1c2ncc(Cn3cncn3)n2CCN1C(=O)[C@H]1CCCO1 (stereo partly specified) | -8.44 |
| Cn1cc(CN2CCC3(CC2)CN(C(=O)c2cnccn2)CCO3)cn1 | -4.88 |
| O=C(C1CCOC1)N1CCN(Cc2cccnc2)c2ncccc2C1 (stereo unspecified) | -7.36 |
| CC1c2ncc(Cn3cncn3)n2CCN1C(=O)c1ccsc1 (stereo unspecified) | -4.72 |
| CC1c2ncc(Cn3cncn3)n2CCN1C(=O)c1ccccn1 (stereo unspecified) | 31.8 |
| CN(C)C(=O)N1C[C@@H](C(=O)NCc2ccco2)C[C@H]2OCC[C@H]21 | -4.06 |
| CCOCC1CN(C(=O)c2ccnnc2)Cc2cnn(C)c21 (stereo unspecified) | -4.89 |
| O=C(N1CCCC1)N1CCOCC2(C1)CN(c1ccccc1)C(=O)CO2 (stereo unspecified) | -3.56 |
| O=C(c1cccs1)N1CCOCC2(C1)CN(c1ccccc1)C(=O)CO2 (stereo unspecified) | -9.8 |
| CC(C)Nc1nc(N2CCCC2)nc2c1CN(C)CC2 | -9.83 |
| COCC(=O)N1CCC2(C1)c1ccccc1S(=O)(=O)N2CCC(C)C (stereo unspecified) | -5.31 |
| O=C(c1cc[nH]n1)N1CCOCC2(C1)CN(c1ccccc1)C(=O)CO2 (stereo unspecified) | -12.1 |
| CCn1ncc2c1C(COC)CN(Cc1ccsc1)C2 (stereo unspecified) | 1.82 |
| COCC1c2nnn(CC3CC3)c2CCN1C(=O)c1ccnnc1 (stereo unspecified) | -6.63 |
| O=C(NCC1CC1)[C@H]1CC[C@@H]2[C@@H](CCN2Cc2ccoc2)O1 | -12.5 |
| CC(=O)N1CCC2(CC1)CC[C@@]1(C(=O)N(C)C)CN(S(C)(=O)=O)C[C@@H]21 | 27.7 |
| O=C([C@H]1CCCO1)N1CCc2ncnc(NC3CC3)c2CC1 | -6.76 |
| Cc1ccc(CN2CCC3(C2)C(=O)N(CC(C)C)c2ccccc23)s1 (stereo unspecified) | -7.14 |
| CC(=O)NCC(=O)N1C[C@H](OCc2cccnc2)[C@H]2COC[C@H]21 | 3.33 |
| O=C(c1ccnnc1)N1C[C@@H](OCC2CCCC2)[C@H]2OCCC[C@H]21 | -3.04 |
| O=C(NCc1cccc(F)c1)N1CCC2(CC(=O)N(c3ccsc3)C2)C1 (stereo unspecified) | 4.74 |
| CO[C@H]1CCN(c2ccc(C)nn2)[C@H]1Cc1cnn(C)c1 | 5.26 |

| SMILES | cytotoxicity at 70.5 h [%] |
| --- | --- |
| O=C(N1CCOCC1)N1CCCC2(CCCNC2)C1 (stereo unspecified) | 8.83 |
| Cc1ccc(C(=O)N2CCc3c(CNc4ncccn4)cncc3C2)o1 | -10.9 |
| CC(C)C(=O)N1CCc2c(CN(C)Cc3ccco3)cncc2C1 | -9.73 |
| COc1ccc(CN2C[C@@H]3CN(Cc4ccoc4)C[C@@H]3C2=O)cc1 | -6.31 |
| O=C(C1CCC2(CCN(CC3CCOCC3)CC2)O1)N1CCCCO1 (stereo unspecified) | -5.73 |
| c1ccc(C[C@H]2CN(C3CCOCC3)CC[C@H]2OCC2CC2)cc1 | -8.83 |
| CN1CCC2(CCCN(c3nccc(C(F)(F)F)n3)C2)CC1 | -11.3 |
| CN(C)C[C@@H]1CCC[C@@H]2CN(c3ncccn3)C[C@@H]21 | -13 |
| CN(C)C[C@@H]1CCC[C@@H]2CN(c3cccnc3)C[C@@H]21 | -1.5 |
| COCCN(C)C[C@@H]1CCC[C@@H]2CN(c3ncccn3)C[C@@H]21 | -0.79 |
| Cc1cccc(C(=O)N2C[C@@H]3CCN(C(C)C)C[C@@H]3C2)c1 | 19 |
| Cc1ccc(CN2C(=O)CC[C@]23CC[C@@H](NCC2CCOC2)CC3)cc1 (stereo partly specified) | 18.5 |
| CC(=O)N1CCC2(CN(CC3CCCC3)C2)C1 | -3.32 |
| CCN1CC(=O)NCC12CCN(C(=O)c1ccno1)C2 (stereo unspecified) | 2.94 |
| CCN(C)C1COC2(CCN(C(=O)c3ccc(Cl)cc3)CC2)C1 (stereo unspecified) | -9.04 |
| O=C1CC[C@]2(CC[C@@H](NC3CCOC3)CC2)N1Cc1ccccc1 (stereo partly specified) | -1.97 |
| Cc1ccc(CN2CCc3[nH]nc(C(=O)N(C)C)c3C2)o1 | -0.827 |
| c1coc(CN2CCC3(CCOCC3COCC3CC3)CC2)c1 (stereo unspecified) | 2.33 |
| CC(=O)NCC(=O)N1Cc2nccn2CC(COc2cccnc2)C1 (stereo unspecified) | -10.5 |
| c1cncc(N2CCCC3(CCN(CC4CCCO4)CC3)C2)c1 (stereo unspecified) | -7.19 |
| Cc1cnc(N2Cc3nccn3CC(Cn3ncccc3=O)C2)nc1 (stereo unspecified) | -1 |
| O=C(NCc1ccco1)[C@H]1C[C@@H]2CCN(c3cccc(F)c3)C[C@H]2O1 | -5.03 |

| SMILES | cytotoxicity at 70.5 h [%] |
| --- | --- |
| O=C(c1cnccn1)N1CCCC2(CCN(Cc3ccsc3)CC2)C1 | 3.52 |
| CNC(=O)[C@H]1C[C@@H]2CN(C(=O)c3ccncc3)C[C@@H]2N1S(C)(=O)=O | 22.4 |
| CC1c2ncc(Cn3cncn3)n2CCN1CC1CCOCC1 (stereo unspecified) | -5.6 |
| O=C(c1ccco1)N1CCOCC2(C1)CN(c1cccnc1)C(=O)CO2 (stereo unspecified) | -3.1 |
| O=C(NC1CC1)N1CCOCC2(CCN(Cc3cccs3)C2)C1 (stereo unspecified) | -16 |
| CC(C)CN1C(=O)C2(CCN(Cc3nccs3)C2)c2ccccc21 (stereo unspecified) | -1.93 |
| COCCNC(=O)[C@H]1C[C@@H]2CCN(c3nncs3)C[C@H]2O1 | -4.17 |
| CCCS(=O)(=O)N1CCO[C@H]2[C@H](OCc3ccccn3)CC[C@@H]21 | -1.48 |
| Cc1ccc(CN2CCC3(CC2)C(=O)N(CC(C)C)CCN3C)o1 | -10.1 |
| O=C(C[C@H]1[C@H]2CN(Cc3ccncc3)C[C@@H]12)N1CCCC1 | 20.1 |
| O=C1CC[C@]2(CC[C@@H](NC3CCOC3)CC2)N1Cc1ccncc1 (stereo partly specified) | -2.28 |
| Cn1cc(N2C(=O)CC[C@@H]3[C@H]2CCN3CCc2ccccc2)cn1 | 16.8 |
| CN(C)C1COC2(CCN(Cc3nccs3)CC2)C1 (stereo unspecified) | -4.71 |
| Cn1nccc1-c1ccc2nc(C3CCN(CC4CC4)CC3)nn2c1 | -12.2 |
| O=C1CC(c2ccncc2)C2(CCN(CC3CC3)CC2)N1 (stereo unspecified) | 14.8 |
| O=C(CC1CC1)N1CCN(Cc2ccncc2)c2ncccc2C1 | -11.9 |
| Cc1nc(CN2CCc3cc(C(=O)O)c(N(C)C)nc3CC2)cs1 | -5.8 |
| O=C(c1ccnnc1)N1CCN(Cc2ccncc2)c2ncccc2C1 | -6.87 |
| c1cnn(CCCO[C@@H]2CC[C@H]3[C@H]2OCCN3CC2CC2)c1 | -7.2 |
| COCC(=O)N1CCN(Cc2cccnc2)c2ncccc2C1 | 1.38 |
| CN(Cc1cccnc1)[C@@H]1CN(C(=O)NC2CC2)[C@@H]2CCCO[C@H]12 | -6.43 |
| Cc1nc(CN2C(=O)CCC23CCN(Cc2cccn2C)CC3)cs1 | -9.94 |

| SMILES | cytotoxicity at 70.5 h [%] |
| --- | --- |
| CN(Cc1cccnc1)[C@@H]1CN(C(=O)c2ccoc2)[C@@H]2CCCO[C@H]12 | -11.9 |
| O=C(C1CC1)N1CCN(Cc2ccncc2)c2ncccc2C1 | -10.1 |
| O=C(N1CCCO1)[C@@]12CCO[C@@H]1CCN(Cc1cccnc1)C2 | -9.68 |
| CCOCC1CN(C(=O)Cc2ccccn2)Cc2cnn(C)c21 (stereo unspecified) | -3.1 |
| CC1c2ncc(CNC(=O)C3CC3)n2CCN1Cc1ccccn1 (stereo unspecified) | 0.0373 |
| c1ccc(OC[C@]23COC[C@H]2CN(C2CCOCC2)C3)nc1 | -9.47 |
| CC(=O)N1CC(=O)N(c2cnn(C)c2)CC12CCN(Cc1ccsc1)C2 (stereo unspecified) | 21.7 |
| COCCn1cc2c(n1)C(CNCc1ccco1)OCC2 (stereo unspecified) | 22.8 |
| CC(C)N(C)Cc1cnc2n1CCN(CCc1ccccc1)C2 | 4.09 |
| COCCn1cc2c(n1)C(CNCc1ccc(F)cc1)OCC2 (stereo unspecified) | 0.574 |
| Cn1cc(CN2CCC(F)(F)C3(CCN(c4cnccn4)C3)C2)cn1 (stereo unspecified) | -0.766 |
| Cc1ccc(CN2CCC(F)(F)C3(CCN(c4cnccn4)C3)C2)o1 (stereo unspecified) | -1.47 |
| Cc1ccc(CN2CCc3[nH]nc(C(=O)N4CCN(C)CC4)c3C2)o1 | 23.5 |
| CN(Cc1cccnc1)C1COC2(CCN(Cc3nccs3)CC2)C1 (stereo unspecified) | -11 |
| Cn1ccnc1CN1CC[C@H]2CO[C@H](CNc3ncccn3)[C@H]2C1 | -5.82 |
| O=C(c1ccncc1)N1CCN(Cc2cccnc2)c2ncccc2C1 | -8.91 |
| c1ccc(Cn2cc3c(n2)C(CNCc2ccco2)OCC3)nc1 (stereo unspecified) | -0.917 |
| COCc1cncc2c1CCN(Cc1ccccn1)C2 | -0.455 |
